Measurements published in the OligoGym collection.
Values joined by “and” are separate entries in the source; they are usually repeats but may differ in a detail not shown here. Equal values may be shown once. After the bases stand the sugars from the 5' end (letter, count) and the backbone: PS all phosphorothioate, else s phosphorothioate and o phosphodiester by linkage. Methylation of C is not given here. e = 2'-O-(2-methoxyethyl) (MOE); k = constrained ethyl (cEt); d = 2'-deoxy (DNA)

Molecular target: SOD1
Details: ASO

Sequence “CAGGATACATTTCTACAGCT (sugars e5 d10 e5, linkages s1 o4 s10 o2 s2)” has a target mRNA inhibition (A431, 0.062 µM) of 18%, a target mRNA inhibition (A431, 0.185 µM) of 28% and a target mRNA inhibition (A431, 0.556 µM) of 45%. The target mRNA inhibition (A431, 1.667 µM) was 70%, the target mRNA inhibition (A431, 5 µM) was 69% and the target mRNA inhibition (A431, 15 µM) was 81%. It also gave a target mRNA inhibition (SH-SY5Y, 0.062 µM) of 0%, a target mRNA inhibition (SH-SY5Y, 0.185 µM) of 17% and a target mRNA inhibition (SH-SY5Y, 0.556 µM) of 49%. It also gave a target mRNA inhibition (SH-SY5Y, 1.667 µM) of 62%, a target mRNA inhibition (SH-SY5Y, 5 µM) of 83% and a target mRNA inhibition (SH-SY5Y, 15 µM) of 91%.
For “ATTTCCACCTTTGCCCAAGT (sugars e5 d10 e5, PS)”, the target mRNA inhibition (HepG2, 4 µM) was 56% and the target mRNA inhibition (HepG2, 12 µM) was 84%.
“AAGTTTAATACCCATCT (sugars e2 k2 d8 k2 e3, PS)” showed a target mRNA inhibition (HepG2, 5 µM) of 54%.
For “GTTTATTGGGCGATCCC (sugars e2 k2 d8 k2 e3, PS)”, the target mRNA inhibition (HepG2, 4 µM) was 54%.
Sequence “TCTTCATCCTTTGGCCC (sugars e3 k2 d7 k2 e3, PS)” has a target mRNA inhibition (HepG2, 3 µM) of 15%.
Work on “CTCGCCCACTCTGGCCCCAA (sugars e5 d10 e5, PS)” yielded a target mRNA inhibition (HepG2, 4 µM) of 45%.
In the case of “TAGACACATCGGCCACACCA (sugars e5 d10 e5, PS)”, the target mRNA inhibition (HepG2, 5 µM) is reported as 46% and 36%.
For “TTAATACCCATCTGTGA (sugars e3 k2 d7 k2 e3, PS)”, the target mRNA inhibition (HepG2, 3 µM) was 2%.
“AAGATTACAGTGTTTAA (sugars e3 k2 d7 k2 e3, PS)” gave a target mRNA inhibition (HepG2, 3 µM) of 34%.
For “CAGTCAGTCCTTTAATGCTT (sugars e5 d10 e5, PS)”, the target mRNA inhibition (HepG2, 5 µM) was 35% and 29%.
“CCCAATTACACCACAAG (sugars e2 k2 d9 k2 e2, PS)” showed a target mRNA inhibition (HepG2, 0.1875 µM) of 25%, a target mRNA inhibition (HepG2, 0.75 µM) of 52% and a target mRNA inhibition (HepG2, 3 µM) of 82%. It also gave a target mRNA inhibition (HepG2, 4 µM) of 74% and a target mRNA inhibition (HepG2, 12 µM) of 97%.
Work on “AAATACAGGTCATTGAA (sugars e3 k2 d7 k2 e3, PS)” yielded a target mRNA inhibition (HepG2, 3 µM) of 2%.
With “GATGCCCTGCACTGGGCCGT (sugars e5 d10 e5, PS)” the target mRNA inhibition (HepG2, 4 µM) was 15%.
With “TCTACAGCTAGCAGGAT (sugars e2 k2 d9 k2 e2, PS)” the target mRNA inhibition (HepG2, 0.1875 µM) was 27%, the target mRNA inhibition (HepG2, 0.75 µM) was 61% and the target mRNA inhibition (HepG2, 3 µM) was 85%. It also gave a target mRNA inhibition (HepG2, 4 µM) of 83% and a target mRNA inhibition (HepG2, 12 µM) of 96%.
“TATTGGGCGATCCCAAT (sugars e2 k2 d9 k2 e2, PS)” was tested, and the target mRNA inhibition (HepG2, 4 µM) was 6%.
Work on “AGGTCATTGAAACAGAC (sugars e3 k2 d7 k2 e3, PS)” yielded a target mRNA inhibition (HepG2, 3 µM) of 21%.
“CAACATGCCTCTCTTCA (sugars e3 k2 d7 k2 e3, PS)” gave a target mRNA inhibition (HepG2, 3 µM) of 3%.
With “TATTCACAGGCTTGAAT (sugars e3 k2 d7 k2 e3, PS)” the target mRNA inhibition (HepG2, 3 µM) was 0%.
“GATTCTTTTAATAGCCTCAT (sugars e5 d10 e5, PS)” was tested, and the target mRNA inhibition (HepG2, 5 µM) was 4%.
“GGCCTCAGACTACATCC (sugars e3 k2 d7 k2 e3, PS)” gave a target mRNA inhibition (HepG2, 3 µM) of 24%.
“GGCCTCAGACTACATCC (sugars e2 k2 d8 k2 e3, PS)” was tested, and the target mRNA inhibition (HepG2, 4 µM) was 70%.
With “AGCTAGCAGGATAACAG (sugars e2 k2 d8 k2 e3, PS)” the target mRNA inhibition (HepG2, 4 µM) was 57%.
In the case of “CCGAGGTCCTGGTTCCGAGG (sugars e5 d10 e5, PS)”, the target mRNA inhibition (HepG2, 4 µM) is reported as 18%.
In the case of “GCAGGATAACAGATGAG (sugars e2 k2 d9 k2 e2, PS)”, the target mRNA inhibition (HepG2, 0.1875 µM) is reported as 31%, the target mRNA inhibition (HepG2, 0.75 µM) is reported as 75% and the target mRNA inhibition (HepG2, 3 µM) is reported as 90%. For the same sequence, the target mRNA inhibition (HepG2, 4 µM) was 86% and 83% and the target mRNA inhibition (HepG2, 12 µM) was 89% and 97%.
In the case of “AAGGGAATGTTTATTGG (sugars e3 k2 d7 k2 e3, PS)”, the target mRNA inhibition (HepG2, 3 µM) is reported as 2%.
With “TGTTTATCAGGATACAT (sugars e2 k2 d8 k2 e3, PS)” the target mRNA inhibition (HepG2, 4 µM) was 70%.
Sequence “GCGATCCCAATTACACC (sugars e2 k2 d9 k2 e2, PS)” has a target mRNA inhibition (HepG2, 4 µM) of 58%.
“CATGCAGGCCTTCAGTCAGT (sugars e5 d10 e5, PS)” was tested, and the target mRNA inhibition (HepG2, 5 µM) was 37% and 33%.
“AGACATTTTAACTGAGT (sugars e2 k2 d9 k2 e2, PS)” gave a target mRNA inhibition (HepG2, 5 µM) of 53%.
Work on “TGAGATCACAGAATCTTCAA (sugars e5 d10 e5, PS)” yielded a target mRNA inhibition (HepG2, 5 µM) of 30%.
“ATGTTTATCAGGATACA (sugars e2 k2 d8 k2 e3, linkages s1 o2 s9 o2 s2)” gave a target mRNA inhibition (A431, 0.12 µM) of 2%, a target mRNA inhibition (A431, 0.6 µM) of 4% and a target mRNA inhibition (A431, 3 µM) of 12%. The target mRNA inhibition (A431, 15 µM) was 52%, the target mRNA inhibition (HepG2, 0.222 µM) was 53% and the target mRNA inhibition (HepG2, 0.667 µM) was 73%. It also gave a target mRNA inhibition (HepG2, 2 µM) of 89% and a target mRNA inhibition (HepG2, 6 µM) of 90%.
For “CTATACAAATCTTCCAA (sugars e3 k2 d7 k2 e3, PS)”, the target mRNA inhibition (HepG2, 3 µM) was 13%.
“GCCTCAGACTACATCCA (sugars e3 k2 d7 k2 e3, PS)” gave a target mRNA inhibition (HepG2, 3 µM) of 43%.
“AACCAGCACCCCGTCTCCGC (sugars e5 d10 e5, PS)” gave a target mRNA inhibition (HepG2, 4 µM) of 11%.
“ATTCACAGGCTTGAATG (sugars e2 k2 d8 k2 e3, PS)” showed a target mRNA inhibition (HepG2, 5 µM) of 19%.
In the case of “GAGTTTTATAAAACTAT (sugars e3 k2 d7 k2 e3, PS)”, the target mRNA inhibition (HepG2, 3 µM) is reported as 6%.
